In patent US10881110B2, “Herbicidal compositions comprising isoxazolo[5,4-b]pyridines” (BASF SE, priority 2014, dated 2021):
Where two headings read alike, the source gives them in different places.

Assays:
Test in all cases: greenhouse post-emergence herbicidal test
[1] = tested on: GERPU; assay type: in vivo, Geranium pusillum; settings: application rate a.i.: I.1 31.25 g/ha
Experimental: (§1) The culture containers used were plastic pots containing medium loamy sand with approximately 4.6% of humus and 69.9% sand as substrate. The seeds of the test plants were sown separately for each species.
(§2) For the post-emergence treatment, the test plants were grown to a plant height of from 1 to 15 cm, depending on the plant habit, and only then treated with the active compounds which had been suspended or emulsified in water. To this end, the test plants were either sown directly, and grown in the same containers, or they were first grown separately as seedlings and transplanted into the test containers a few days prior to treatment.
(§3) Depending on the species, the plants were kept at 10-25° C. and 20-35° C., respectively.
(§4) The test period extended over 1 to 3 weeks. During this time, the plants were tended and their response to the individual treatments was evaluated 20 days after treatment except mentioned otherwise.
(§5) Evaluation was carried out using a scale from 0 to 100. 100 means no emergence of the plants, or complete destruction of at least the above-ground parts, and 0 means no damage or normal course of growth.
(§6) The respective stated components A and B, and, if appropriate, C, were formulated as a 10% by weight strength emulsion concentrate and, with addition of the amount of solvent system, introduced into the spray liquor used for applying the active compound. In the examples, the solvent used was water.
(§7) In the examples below, using the method of S. R. Colby (1967) “Calculating synergistic and antagonistic responses of herbicide combinations”, Weeds 15, p. 22 ff., the value E, which is expected if the activity of the individual active compounds is only additive, was calculated. E=X+Y−(X·Y/100)

[2] = tested on: SASKR; assay type: in vivo, Salsola kali; design: key: scale 0 to 100
Method in brief: (§8)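 Herbicidal activity scored on a 0 (no damage) to 100 (plants destroyed) scale, usually 20 days after water-based spraying of 1–15 cm plants grown in loamy sand at 10-25 °C or 20-35 °C depending on species. Components were applied from 10% emulsion concentrates; Colby's E=X+Y−(X·Y/100) gives the additive expectation.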

[3] = tested on: SORVU; assay type: in vivo; settings: 6 days after treatment
[4] = tested on: LAMAM; assay type: in vivo, Lamium amplexicaule; design: key: scale 0 to 100
Experimental: as §1, §2, §3, §4, §5, §6, §7

[5] = tested on: PAPRH; assay type: in vivo, Papaver rhoeas; design: key: rating on a scale from 0 to 100
Method in brief: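 Each species was sown separately, grown to a height of 1 to 15 cm and then sprayed with water-dispersed components A, B and where relevant C. Growth conditions were 10-25° C or 20-35° C, and percent damage was recorded at 20 days.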

[6] = tested on: GALAP; assay type: in vivo, Galium aparine; design: key to herbicidal activity against GALAP found: rating on a scale from 0 to 100; settings: post emergence; for pest or weed control at 31.25 g/ha / pest or weed control at 62.5 g/ha / pest or weed control at 125 g/ha: Galium aparine, post-emergence, 480 h, read-out: herbicidal activity against GALAP found; for pest or weed control at 125 g/ha: 125 g/ha a.i.
Method in brief: as §8

[7] = 6 days after treatment, g/ha a.i.: I.1 62.5, B.96 140, mixture 62.5+140
[8] = application rate a.i.: I.1 62.5 g/ha, B.87 (carfentrazone-ethyl) 1.75 g/ha, alone or as mixture (composition 1.87)
[9] = I.1 31.25 g/ha, B.95 1 g/ha a.i.

Q: With O=C(O)c1cc(C2CC2)nc2onc(C3CC3)c12 [I.1] as the compound, how does the “herbicidal activity against GERPU, found” value ([1]; B.139 (pyroxasulfone) 12.5 g/ha, alone or as mixture (composition 1.139)) read?
A: The value was 80.

Q: What about the “herbicidal activity against GERPU, found” value ([1]; B.139 (pyroxasulfone) 25 g/ha, alone or as mixture (composition 1.139)) of the same compound?
A: The value was 80.

Q: And the “herbicidal activity against GERPU, found” value ([1]; B.87 (carfentrazone-ethyl) 1.75 g/ha, alone or as mixture (composition 1.87))?
A: Its value is 80.

Q: What about the “herbicidal activity against SASKAR found” value ([2]; 31.25 g/ha a.i.) of the same compound?
A: Its value is 60.

Q: What about the “herbicidal activity against SASKR found” value ([2]; 31.25 g/ha a.i.) of the same compound?
A: The value was 20.

Q: And the “herbicidal activity against SASKR found” value ([2]; 6 days after treatment, g/ha a.i.: I.1 31.25, naptalam 200, mixture 31.25+200)?
A: The value was 65.

Q: And the “herbicidal activity against SASKR found” value [2, 7]?
A: Its value is 65.

Q: What about the “herbicidal activity against SASKR found” value ([2]; 6 days after treatment, g/ha a.i.: I.1 62.5, naptalam 50, mixture 62.5+50) of the same compound?
A: The value was 65.

Q: And the “herbicidal activity against SASKR found” value ([2]; 6 days after treatment, g/ha a.i.: I.1 62.5, naptalam 200, mixture 62.5+200)?
A: The value was 65.

Q: What about the “herbicidal activity against SASKR found” value ([2]; application rate a.i.: I.1 31.25 g/ha, B.84 (paraquat-dichloride) 17.5 g/ha, alone or as mixture (composition 1.84)) of the same compound?
A: Its value is 10.

Q: What about the “herbicidal activity against SORVU found” value ([3]; g/ha a.i.: I.1 31.25, B.96 140, mixture 31.25+140) of the same compound?
A: The value was 0.

Q: And the “herbicidal activity against SORVU found” value ([3]; g/ha a.i.: I.1 62.5, naptalam 200, mixture 62.5+200)?
A: The value was 20.

Q: What about the “herbicidal activity against LAMAM, found” value ([4]; 31.25 g/ha a.i.) of the same compound?
A: Its value is 70.

Q: And the “herbicidal activity against LAMAM, found” value ([4]; application rate a.i.: I.1 31.25 g/ha, B.139 (pyroxasulfone) 25 g/ha, alone or as mixture (composition 1.139))?
A: The value was 80.

Q: What about the “herbicidal activity against LALAM, found” value ([4]; application rate a.i.: I.1 31.25 g/ha, B.87 (carfentrazone-ethyl) 1.75 g/ha, alone or as mixture (composition 1.87)) of the same compound?
A: Its value is 70.

Q: What about the “herbicidal activity against LAMAM, found” value [4, 8] of the same compound?
A: Its value is 85.

Q: What about the “herbicidal activity against PAPRH found” value ([5]; 62.5 g/ha a.i.) of the same compound?
A: The value was 50.

Q: And the “herbicidal activity against PAPRH found” value ([5]; I.1 15.62 g/ha, B.103 15 g/ha a.i.)?
A: The value was 30.

Q: What about the “herbicidal activity against PAPRH found” value ([5]; I.1 15.62 g/ha, B.88 2 g/ha a.i.) of the same compound?
A: The value was 70.

Q: And the “herbicidal activity against PAPRH found” value ([5]; I.1 31.25 g/ha, B.103 15 g/ha a.i.)?
A: Its value is 30.

Q: What about the “herbicidal activity against PAPRH found” value ([5]; I.1 31.25 g/ha, B.88 1 g/ha a.i.) of the same compound?
A: The value was 75.

Q: What about the “herbicidal activity against PAPRH found” value ([5]; I.1 31.25 g/ha, B.88 2 g/ha a.i.) of the same compound?
A: The value was 75.

Q: What about the “herbicidal activity against PAPRH found” value [5, 9] of the same compound?
A: Its value is 75.

Q: And the “herbicidal activity against PAPRH found” value ([5]; I.1 62.5 g/ha, B.57 2 g/ha a.i.)?
A: Its value is 75.

Q: And the “herbicidal activity against PAPRH found” value ([5]; I.1 62.5 g/ha, B.88 1 g/ha a.i.)?
A: Its value is 75.

Q: What about the “herbicidal activity against PAPRH found” value ([5]; I.1 62.5 g/ha, B.88 2 g/ha a.i.) of the same compound?
A: The value was 75.

Q: What about the “herbicidal activity against PAPRH found” value ([5]; I.1 62.5 g/ha, B.95 1 g/ha a.i.) of the same compound?
A: Its value is 75.

Q: And the “herbicidal activity against PAPRH found” value ([5]; I.1 alone 31.25 g/ha a.i.)?
A: The value was 70.

Q: And the “herbicidal activity against PAPRH found” value ([5]; application rate a.i.: I.1 62.5 g/ha, B.40 (imazethapyr) 7.5 g/ha, alone or as mixture (composition 1.40))?
A: Its value is 65.

Q: What about the “herbicidal activity against PAPRH found” value [5, 8] of the same compound?
A: Its value is 85.

Q: And the “herbicidal activity against PAPRH found” value ([5]; applied alone at 31.25 g/ha a.i.)?
A: Its value is 65.

Q: And the pest or weed control at 31.25 g/ha ([6]; I.1 alone 31.25 g/ha a.i.)?
A: Its pest or weed control at 31.25 g/ha is 50%.

Q: What about the pest or weed control at 62.5 g/ha ([6]; I.1 alone 62.5 g/ha a.i.) of the same compound?
A: Its pest or weed control at 62.5 g/ha is 80%.

Q: What about the pest or weed control at 31.25 g/ha ([6]; 31.25 g/ha a.i.) of the same compound?
A: Its pest or weed control at 31.25 g/ha is 50%.

Q: What about the pest or weed control at 62.5 g/ha ([6]; 62.5 g/ha a.i.) of the same compound?
A: Its pest or weed control at 62.5 g/ha is 50%.

Q: And the pest or weed control at 125 g/ha [6]?
A: The pest or weed control at 125 g/ha was 80%.

Q: What about the pest or weed control at 31.25 g/ha ([6]; I.1 31.25 g/ha a.i.) of the same compound?
A: The pest or weed control at 31.25 g/ha was 60%.

Q: And the pest or weed control at 62.5 g/ha ([6]; I.1 62.5 g/ha a.i.)?
A: The pest or weed control at 62.5 g/ha was 60%.

Q: And the pest or weed control at 62.5 g/ha ([6]; single active, 62.5 g/ha a.i.)?
A: Its pest or weed control at 62.5 g/ha is 65%.

Q: What about the pest or weed control at 125 g/ha ([6]; single active) of the same compound?
A: Its pest or weed control at 125 g/ha is 65%.

Q: And the “herbicidal activity against GALAP found” value ([6]; 6 days after treatment, g/ha a.i.: I.1 62.5, B.96 70, mixture 62.5+70)?
A: Its value is 65.

Q: What about the “herbicidal activity against GALAP found” value [6, 7] of the same compound?
A: Its value is 65.

Q: What about the “herbicidal activity against GALAP found” value [6, 9] of the same compound?
A: The value was 50.

Q: And the “herbicidal activity against GALAP found” value ([6]; I.1 31.25 g/ha, B.95 2 g/ha a.i.)?
A: The value was 50.

Q: And the “herbicidal activity against GALAP found” value ([6]; I.1 62.5 g/ha, B.103 7.5 g/ha a.i.)?
A: The value was 50.

Q: And the “herbicidal activity against GALAP found” value ([6]; I.1 62.5 g/ha, B.95 2 g/ha a.i.)?
A: The value was 60.

Q: And the “herbicidal activity against GALAP found” value ([6]; a.i. g/ha: I.1 15.6, B.67 125, 20 days after treatment)?
A: Its value is 20%.

Q: What about the “herbicidal activity against GALAP found” value ([6]; a.i. g/ha: I.1 20.8, B.67 62.5, 20 days after treatment) of the same compound?
A: The value was 0%.

Q: What about the “herbicidal activity against GALAP found” value ([6]; a.i. g/ha: I.1 31.25, B.67 125, 20 days after treatment) of the same compound?
A: The value was 75%.

Q: And the “herbicidal activity against GALAP found” value ([6]; a.i. g/ha: I.1 31.25, B.92 0.5, 20 days after treatment)?
A: The value was 65%.
